Columns and labels:
[1] = test system: E. coli ORN103(pSH2) within 5637 BECs; test: Intracellular bacteria survival assay (antibiotic protection); type: cell-based, human; conditions: NH4Cl 10 mM, 50 mM; Bafilomycin 1 μM
Method: In this assay, 5637 BECs were infected with ORN103(pSH2) E. coli diluted in RPMI 1640 medium at a multiplicity of infection (MOI) of 100:1. Cells were centrifuged for 5 min at 600 g, and incubated for 60 min at 37° C. Next, the cells were incubated with 100 μg/ml of gentamicin (Invitrogen) in RPMI medium for 30 min, and then with 10 μg/ml gentamicin in RPMI medium. At each time point, the cells were washed using PBS, solubilized with 0.1% Triton X-100 in PBS and plated for colony counts.

5637 BECs = test: β-hexosaminidase release assay; type: cell-based, human; conditions: for release of β-hexosaminidase from E. coli-infected BECs: E. coli ORN103(pSH2)-infected 5637 BECs, NiCl2 2 mM, H89 10 μM; for release of β-hexosaminidase into extracellular media: uninfected 5637 BECs, 1 hr, forskolin 100 μM, dibutyryl-cAMP 1 mM, calcium ionophore 1 μM
[2] = test system: E. coli ORN103(pSH2)-infected 5637 BECs; test: Bacterial exocytosis assay; type: cell-based, human; conditions: inhibitors added during gentamicin incubation; H89 10 μM, NiCl2
Method: In this assay, 5637 BECs were infected with bacteria as above. Infection continued for 60 min, and then the cells were washed with culture medium (including 100 μg/ml gentamicin and 100 mM methyl α-D-mannopyranoside (Sigma, St. Louis, Mo.)) for an additional 30 min. The cells were then washed twice and then allowed to incubate for 1-4 h with fresh culture medium containing 100 mM methyl α-D-mannopyranoside. At each time point, the culture medium and one wash of 100 μl of culture medium with methyl α-D-mannopyranoside were collected and pooled. The inhibitors H89 (10 μM) and NiCl2 ([…]) were added during the gentamicin incubation and left in the culture medium. All homogenates and pooled culture medium were cultured for colony counts. All exocytosis assays had n=12 wells of a 96-well plate.

[3] = test system: human bladder epithelial cells; test: Intracellular cAMP enzyme immunoassay; type: cell-based
Method: In this example, the effect of bacterial lipopolysccharide (LPS), a Toll-like Receptor 4 (TLR4) ligand, on intracellular levels of cAMP was assessed in human bladder epithelial cells (BECs). Methods are as described in Song et al. (2007) PLoS Pathog. 3(4):e60. BECs were seeded onto 6-well plates and grown overnight. The cells were treated with […] E. coli LPS for 6 h at 37° C., followed by washing four times with PBS to remove culture media, followed by an addition of […] of 0.1 M HCl. After a 10 min incubation, the cell lysate was centrifuged and the supernatant was used directly in the cAMP assay. Intracellular concentrations of cAMP were determined using a cAMP enzyme immunoassay kit (Sigma) according to the manufacturer's instructions.

phosphodiesterases = conditions: read-out: IC50, non-specific inhibitor of phosphodiesterases; cited from earlier work
E. coli CI5 [4] = test: In vivo bladder infection, 2-h-long infection, intracellular bacterial CFU; set-up: species or system mouse; conditions: BALB/c mice, forskolin 2 h after infection, i.p. 10 mg/kg and by catheter 100 μM
Method: (§1) In this procedure, 8-week-old female BALB/c mice were anesthetized with sodium pentobarbital and then inoculated transurethrally with 50 μl of either E. coli CI5 or a bacterial suspension (approximately 1.0×10^8 CFU) suspended in PBS. After 2 h, the bladders were removed aseptically. Then the bladders were either bisected and fixed with 2% paraformaldehyde plus 2% gluteraldehyde in PBS (for transmission electron microscopy) or frozen for immunofluorescence microscopy. For the 2-h-long infections with E. coli and S. enterica SL1344, BALB/c mice were infected as above. After 2 h, the mice were intraperitoneally injected with 100 μl PBS (with or without 10 mg/kg forskolin) and intravesicularly instilled, for 1 h, with 100 μg/ml gentamicin in PBS (with or without 100 μM forskolin). For the 24-h-long infections, BALB/c mice were infected. After 24 h, the mice were intravesicularly instilled with 50 μl of PBS (with or without 100 μM forskolin) for 1 h. The 100 μM forskolin in PBS was replaced by 100 μg/ml gentamicin in PBS for 30 min. The bladders were then removed aseptically and homogenized them in 0.1% Triton X-100 in PBS. Homogenate dilutions were plated for colony counts.

S. enterica SL1344 = test: as above; set-up: species or system mouse; conditions: BALB/c mice, forskolin 2 h after infection, i.p. 10 mg/kg and by catheter 100 μM
Method: as §1

bacteria = test: Bacterial viability (data not shown)
[5] = test system: fusiform vesicles of mouse bladder BECs; test: Immunofluorescence of bladder sections (Rab27b); type: in vivo; conditions: mouse bladders, antibodies to Rab27b, forskolin 100 μM 1 h
Method: Balb/c mice were either infected with E. coli CI5 as above, or they were treated with either 100 μM forskolin or PBS for 1 h through a catheter. Frozen sections of these bladders were cut using standard methods. Each section was fixed in 100% ethanol for 20 min at −20° C., and blocked in PBS with 1% BSA for 1 h at 4° C. Sections were incubated overnight at 25° C. with primary antibodies to either Rab27b (Santa Cruz Biotechnology, Inc., Santa Cruz, Calif.) or UPIII (Santa Cruz Biotechnology), and washed. Sections were incubated for 1 h at room temperature with secondary antibodies, and washed. To visualize the nuclei, the sections were incubated with Hoechst-33258 for 5 min at room temperature and then washed. All dilutions and washes were with PBS and 1% BSA. Coverslips were viewed as described previously.

E. coli CI5 [6] = test: In vivo bladder infection, 24-h-long infection, intravesicular forskolin; set-up: species or system mouse; conditions: Balb/c mice
Method: as §1

E. coli CI5 [7] = test: In vivo bladder infection with 3-d-long forskolin regimen; set-up: species or system mouse; conditions: C3H/HeJ mice, forskolin 10 mg/kg i.p. at 6, 24 and 48 h; at 72 h; P≦0.03
Method: In this procedure, 8-week-old female C3H/HeJ mice were infected with E. coli CI5 as above. At 6, 24 and 48 h after infection, the mice were intraperitoneally injected with 100 μl PBS, with or without 10 mg/kg forskolin. At 72 h after infection, bladders were aseptically removed and plated for colony counts.

IL-6 = IL-6 ELISA of urine; type: in vivo, mouse
Method: In this assay, 8-week-old female C3H/HeJ mice were infected with E. coli CI5 as above. After 6 h, the mice were intraperitoneally injected with 100 μl of PBS, with or without 10 mg/kg forskolin. Urine was collected at 6 and 24 h after infection, using clean catch methods, and the samples were stored at −80° C. The concentration of IL-6 in the urine was determined using the mouse IL-6 ELISA kit (eBioscience, San Diego, Calif.) according to the manufacturer's protocol.

[8] = test system: E. coli ORN103(pSH2) invasion into 5637 BECs; test: Gentamicin protection assay, UPEC invasion; type: cell-based, human; conditions: dilution 1:10
Method: (§2) A gentamicin protection assay, including 5637 BECs on 96-well plates (40,000 cells/well), was used to determine the effect of forskolin on UPEC invasion. In this example, the UPEC was either J96 or E. coli ORN103(pSH2). 50 μM forskolin was administered as a pretreatment for 15 min before infection or administered at the same time as the bacteria.

[9] = test system: UPEC J96 invasion into 5637 BECs; test: Gentamicin protection assay, UPEC invasion; type: cell-based, human; conditions: dilution 1:10
Method: as §2

UPEC strain CI5 = test: In vivo gentamicin protection assay, UPEC colonization of the bladder; set-up: species or system mouse; conditions: IP Fsk/Cather Fsk, 1 hr treatment
Method: An in vivo gentamicin protection assay was used to determine the effect of forskolin on UPEC colonization of the bladder. In this example, UPEC strain CI5 was injected into the bladder via catheter to initiate a urinary tract infection. After 2 hours of infection, the mice were re-catheterized, the urine was removed, and the bladder was treated with 100 uM forskolin in PBS for 1 hour. After the forskolin treatment, 100 ug/ml gentamicin in PBS was injected into the bladder via catheter for 30 minutes. The bladders were then removed, washed in sterile PBS, and homogenized. The homogenates were plated on LB agar for overnight colony counts at various dilutions. Control mice were treated with PBS alone instead of forskolin plus PBS. The top half of Table 3 represents the raw colony counts while the bottom half of Table 3 represents the calculated bladder load of UPEC strain C15 based on the dilutions.

[10] = SH2, 50 μM forskolin at the same time as the bacteria
[11] = SH2, 50 μM forskolin pretreatment 15 min before infection
[12] = J96, 50 μM forskolin at the same time as the bacteria
[13] = J96, 50 μM forskolin pretreatment 15 min before infection

## CO/C1=C\C(C)=C\[C@@H](C)[C@@H](O)[C@@H](C)C/C(C)=C/C=C/[C@H](OC)[C@@H]([C@@H](C)[C@@H](O)[C@H](C)[C@@]2(O)C[C@@H](O)[C@H](C)[C@@H](C(C)C)O2)OC1=O [Bafilomycin]
[1]
  E. coli ORN103(pSH2) persistence within 5637 BECs: caused no improvement

## O=S(=O)(NCCNC/C=C/c1ccc(Br)cc1)c1cccc2cnccc12 [H89]
5637 BECs
  release of β-hexosaminidase from E. coli-infected BECs: regulatable
[2]
  E. coli ORN103(pSH2) exocytosis into antibiotic-free medium: reduced

## CC(C)Cn1c(=O)n(C)c(=O)c2[nH]cnc21 [IBMX, 3-Isobutyl-1-methylxanthine]
[3]
  intracellular cAMP levels compared to untreated controls: significantly increases
phosphodiesterases
  IC50: 2 to 50 µM

## Cl.N [NH4Cl]
[1]
  E. coli ORN103(pSH2) persistence within 5637 BECs: caused no improvement

## [Cl][Ni][Cl] [NiCl2]
5637 BECs
  release of β-hexosaminidase from E. coli-infected BECs: regulatable
[2]
  E. coli ORN103(pSH2) exocytosis into antibiotic-free medium: reduced

## C[C@H](CCC(=O)O)C[C@H](C)C[C@H](C)C(=O)/C=C(\O)[C@H](C)C[C@H](C)C/C=C/[C@@H](C)[C@@H](O)[C@@H](C)[C@@H](O)C[C@@H]1CC[C@@](C)([C@H]2CC[C@@](C)([C@@H](C)O)O2)O1 [calcium ionophore, ionomycin]
5637 BECs
  release of β-hexosaminidase into extracellular media: stimulated the BECs to release appreciable levels of β-hexosaminidase

## CCCC(=O)Nc1ncnc2c1ncn2[C@@H]1O[C@@H]2COP(=O)(O)O[C@H]2[C@H]1OC(=O)CCC [dibutyryl-cAMP]
5637 BECs
  release of β-hexosaminidase into extracellular media: stimulated the BECs to release appreciable levels of β-hexosaminidase

## C=C[C@@]1(C)CC(=O)[C@]2(O)[C@@]3(C)[C@@H](O)CCC(C)(C)[C@@H]3[C@H](O)[C@H](OC(C)=O)[C@@]2(C)O1 [forskolin]
5637 BECs
  release of β-hexosaminidase into extracellular media: stimulated the BECs to release appreciable levels of β-hexosaminidase
E. coli CI5 [4]
  intracellular E. coli CI5 eliminated: over 99%
S. enterica SL1344
  effect on intracellular S. enterica SL1344: no effect
bacteria
  effect on bacterial viability: no effect
[5]
  translocation of fusiform vesicles to the apical plasma membrane: translocation of fusiform vesicles to the apical plasma membrane of mouse bladders was detected
E. coli CI5 [6]; intravesicular forskolin 100 μM 24 h after infection, P≦0.033
  reduction in the number of E. coli CI5 within bladder compared to saline-treated controls: 79.4%
E. coli CI5 [6]; intravesicular forskolin 24 h after infection, control 33%, P≦0.01
  mice harboring >10^5 bacteria in their bladders: 4.1%
E. coli CI5 [7]
  decrease of average bacterial load within the bladders compared to control mice: 56%
IL-6; E. coli CI5-infected C3H/HeJ mice, 18 h after forskolin 10 mg/kg i.p., P≦0.0003
  decrease in urine IL-6: 99.6%
IL-6; forskolin treatment alone, uninfected mice
  IL-6 levels in uninfected mice: did not alter IL-6 levels
[8]; [10]
  intracellular bacteria, Mean: 10575 colony counts
  intracellular bacteria, replicate 1: 10980 colony counts
  intracellular bacteria, replicate 2: 8260 colony counts
  intracellular bacteria, replicate 3: 14140 colony counts
  intracellular bacteria, replicate 4: 8920 colony counts
[8]; [11]
  intracellular bacteria, Mean: 9553 colony counts
  intracellular bacteria, replicate 1: 8860 colony counts
  intracellular bacteria, replicate 2: 9060 colony counts
  intracellular bacteria, replicate 3: 10740 colony counts
[9]; [12]
  intracellular bacteria, Mean: 545 colony counts
  intracellular bacteria, replicate 1: 800 colony counts
  intracellular bacteria, replicate 2: 640 colony counts
  intracellular bacteria, replicate 3: 460 colony counts
  intracellular bacteria, replicate 4: 280 colony counts
[9]; [13]
  intracellular bacteria, Mean: 535 colony counts
  intracellular bacteria, replicate 1: 720 colony counts
  intracellular bacteria, replicate 2: 140 colony counts
  intracellular bacteria, replicate 3: 200 colony counts
  intracellular bacteria, replicate 4: 1080 colony counts
UPEC strain CI5
  Percent Control (bladder load), Average: 0.41%
  Percent Control (bladder load), mouse 1: 0.45%
  Percent Control (bladder load), mouse 2: 0.22%
  Percent Control (bladder load), mouse 3: 0.56%
  raw colony counts of bladder homogenate, Average: 83 colony counts
UPEC strain CI5; based on the dilutions
  calculated bladder load of UPEC strain CI5, Average: 1653 colony counts
  calculated bladder load of UPEC strain CI5, mouse 1: 1820 colony counts
  calculated bladder load of UPEC strain CI5, mouse 2: 900 colony counts
  calculated bladder load of UPEC strain CI5, mouse 3: 2240 colony counts
UPEC strain CI5; dilution 1:1
  raw colony counts of bladder homogenate, mouse 1: 91 colony counts
  raw colony counts of bladder homogenate, mouse 2: 45 colony counts
  raw colony counts of bladder homogenate, mouse 3: 112 colony counts
